Species: Rattus norvegicus
Experiment: Open TG-GATES - Regimen: Single
Assay type: toxicity, organism-based, Sprague-Dawley
Set-up: regimen Single, gender Male, age 6 weeks
Conditions: in vivo, po, 20 mg/kg, route gavage, dose level Low; for APTT / Bas / Eos / Fbg / Hb / Ht / Lym / MCH / MCHC / MCV / Mono / Neu / PT / Plat / RBC / Ret / WBC: tissue Blood; for KIDNEY_L / KIDNEY_R / KIDNEY_TOTAL: tissue Kidney; for LIVER: tissue Liver; for A/G / ALP / ALT / AST / BUN / CRE / Ca / Cl / DBIL / GLC / IP / K / LDH / Na / PL / RALB / TBIL / TC / TG / TP / gamma-GTP: tissue Plasma

`CCc1oc2ccccc2c1C(=O)c1cc(Br)c(O)c(Br)c1` [BENZBROMARONE] showed a TERMINAL_BW (3 h) of 212.8 g, an APTT (3 h) of 16.3 s and a Bas (3 h) of 0%. For the same compound, the Eos (3 h) was 0.6%, the Fbg (3 h) was 237.6 mg/dL and the Hb (3 h) was 13.8 g/dL. It also gave a Ht (3 h) of 41%, a Lym (3 h) of 81.2% and an MCH (3 h) of 21.7 pg. The MCHC (3 h) was 33.6%, the MCV (3 h) was 64.6 fL and the Mono (3 h) was 8.4%. The Neu (3 h) was 9.8%, the PT (3 h) was 11.8 s and the Plat (3 h) was 106.4 x10_4/uL. It also gave an RBC (3 h) of 634.6 x10_4/ul, a Ret (3 h) of 7.7% and a WBC (3 h) of 91.2 x10_2/uL. For the same compound, the KIDNEY_L (3 h) was 0.9 g, the KIDNEY_R (3 h) was 1 g and the KIDNEY_TOTAL (3 h) was 1.9 g. For the same compound, the LIVER (3 h) was 10.1 g, the A/G (3 h) was 2.3 and the ALP (3 h) was 902 IU/L. For the same compound, the ALT (3 h) was 33.6 IU/L, the AST (3 h) was 62 IU/L and the BUN (3 h) was 11.2 mg/dL. For the same compound, the CRE (3 h) was 0.6 mg/dL, the Ca (3 h) was 10.7 mg/dL and the Cl (3 h) was 103.4 meq/L. It also gave a DBIL (3 h) of 0.034 mg/dL, a GLC (3 h) of 195.4 mg/dL and an IP (3 h) of 9.5 mg/dL. It also gave a K (3 h) of 4.8 meq/L, an LDH (3 h) of 81.6 IU/L and a Na (3 h) of 139 meq/L. It also gave a PL (3 h) of 147 mg/dL, an RALB (3 h) of 3.9 g/dL and a TBIL (3 h) of 0.3 mg/dL. The TC (3 h) was 79.6 mg/dL, the TG (3 h) was 81.2 mg/dL and the TP (3 h) was 5.6 g/dL. The gamma-GTP (3 h) was 1 IU/L, the TERMINAL_BW (6 h) was 212.2 g and the APTT (6 h) was 16.1 s. It also gave a Bas (6 h) of 0%, an Eos (6 h) of 1.2% and a Fbg (6 h) of 228 mg/dL. For the same compound, the Hb (6 h) was 13.8 g/dL, the Ht (6 h) was 41.2% and the Lym (6 h) was 79.4%. It also gave an MCH (6 h) of 21.6 pg, an MCHC (6 h) of 33.5% and an MCV (6 h) of 64.5 fL. The Mono (6 h) was 7%, the Neu (6 h) was 12.6% and the PT (6 h) was 12.1 s. The Plat (6 h) was 113.8 x10_4/uL, the RBC (6 h) was 639.4 x10_4/ul and the Ret (6 h) was 7.7%. The WBC (6 h) was 111.3 x10_2/uL, the KIDNEY_L (6 h) was 1 g and the KIDNEY_R (6 h) was 1 g. For the same compound, the KIDNEY_TOTAL (6 h) was 2 g, the LIVER (6 h) was 9.9 g and the A/G (6 h) was 2.2. For the same compound, the ALP (6 h) was 710.4 IU/L, the ALT (6 h) was 28.8 IU/L and the AST (6 h) was 59.4 IU/L. It also gave a BUN (6 h) of 11.2 mg/dL, a CRE (6 h) of 0.4 mg/dL and a Ca (6 h) of 10.5 mg/dL. The Cl (6 h) was 103.2 meq/L, the DBIL (6 h) was 0.002 mg/dL and the GLC (6 h) was 183 mg/dL. For the same compound, the IP (6 h) was 9.6 mg/dL, the K (6 h) was 5.1 meq/L and the LDH (6 h) was 90 IU/L. For the same compound, the Na (6 h) was 138.2 meq/L, the PL (6 h) was 136.4 mg/dL and the RALB (6 h) was 3.8 g/dL. For the same compound, the TBIL (6 h) was 0.4 mg/dL, the TC (6 h) was 75 mg/dL and the TG (6 h) was 75.4 mg/dL. It also gave a TP (6 h) of 5.6 g/dL, a gamma-GTP (6 h) of 1 IU/L and a TERMINAL_BW (9 h) of 210.1 g. The APTT (9 h) was 15.6 s, the Bas (9 h) was 0% and the Eos (9 h) was 1%. It also gave a Fbg (9 h) of 234.6 mg/dL, a Hb (9 h) of 13.8 g/dL and a Ht (9 h) of 40.9%. For the same compound, the Lym (9 h) was 84.2%, the MCH (9 h) was 22.1 pg and the MCHC (9 h) was 33.8%. The MCV (9 h) was 65.5 fL, the Mono (9 h) was 6.2% and the Neu (9 h) was 8.8%. It also gave a PT (9 h) of 12.2 s, a Plat (9 h) of 113.6 x10_4/uL and an RBC (9 h) of 625.2 x10_4/ul. For the same compound, the Ret (9 h) was 7.6%, the WBC (9 h) was 103.5 x10_2/uL and the KIDNEY_L (9 h) was 1 g. The KIDNEY_R (9 h) was 1 g, the KIDNEY_TOTAL (9 h) was 1.9 g and the LIVER (9 h) was 9.3 g. It also gave an A/G (9 h) of 2.1, an ALP (9 h) of 840.2 IU/L and an ALT (9 h) of 29.6 IU/L. For the same compound, the AST (9 h) was 60 IU/L, the BUN (9 h) was 10 mg/dL and the CRE (9 h) was 0.5 mg/dL. The Ca (9 h) was 10.1 mg/dL, the Cl (9 h) was 104.2 meq/L and the DBIL (9 h) was 0.008 mg/dL. It also gave a GLC (9 h) of 194.4 mg/dL, an IP (9 h) of 10.5 mg/dL and a K (9 h) of 4.8 meq/L. It also gave an LDH (9 h) of 86.6 IU/L, a Na (9 h) of 138.4 meq/L and a PL (9 h) of 119.4 mg/dL. It also gave an RALB (9 h) of 3.8 g/dL, a TBIL (9 h) of 0.4 mg/dL and a TC (9 h) of 67.8 mg/dL. It also gave a TG (9 h) of 44 mg/dL, a TP (9 h) of 5.7 g/dL and a gamma-GTP (9 h) of 1 IU/L. For the same compound, the TERMINAL_BW (24 h) was 225.2 g, the APTT (24 h) was 16.5 s and the Bas (24 h) was 0%. It also gave an Eos (24 h) of 1.6%, a Fbg (24 h) of 229 mg/dL and a Hb (24 h) of 13.9 g/dL. It also gave a Ht (24 h) of 41.3%, a Lym (24 h) of 78.2% and an MCH (24 h) of 21.8 pg. The MCHC (24 h) was 33.7%, the MCV (24 h) was 64.8 fL and the Mono (24 h) was 7.8%. For the same compound, the Neu (24 h) was 13%, the PT (24 h) was 12.1 s and the Plat (24 h) was 112.8 x10_4/uL. For the same compound, the RBC (24 h) was 636.8 x10_4/ul, the Ret (24 h) was 7.2% and the WBC (24 h) was 103.7 x10_2/uL. It also gave a KIDNEY_L (24 h) of 1 g, a KIDNEY_R (24 h) of 1 g and a KIDNEY_TOTAL (24 h) of 2 g. The LIVER (24 h) was 11.3 g, the A/G (24 h) was 2 and the ALP (24 h) was 915.4 IU/L. The ALT (24 h) was 37 IU/L, the AST (24 h) was 62.6 IU/L and the BUN (24 h) was 18.6 mg/dL. It also gave a CRE (24 h) of 0.6 mg/dL, a Ca (24 h) of 10.5 mg/dL and a Cl (24 h) of 105.2 meq/L. The DBIL (24 h) was 0.04 mg/dL, the GLC (24 h) was 184.2 mg/dL and the IP (24 h) was 7.8 mg/dL. The K (24 h) was 5.4 meq/L, the LDH (24 h) was 105.4 IU/L and the Na (24 h) was 138.4 meq/L. It also gave a PL (24 h) of 161.2 mg/dL, an RALB (24 h) of 4 g/dL and a TBIL (24 h) of 0.3 mg/dL. For the same compound, the TC (24 h) was 83.2 mg/dL, the TG (24 h) was 131 mg/dL and the TP (24 h) was 6 g/dL. It also gave a gamma-GTP (24 h) of 1.4 IU/L.

Reference: ChEMBL document CHEMBL3885861, “Open TG-GATES”
